Columns and labels:
[1] = tested on: BMDMs; assay: qPCR of Sema3e mRNA in macrophages; format: cell-based, mouse; details: BMDM, CoCl2
Protocol: Total RNA was isolated from cells using TRIzol Reagent (Invitrogen). RNA (1 μg) was reverse-transcribed with an iScript cDNA Synthesis kit according to the manufacturer's instructions (Bio-Rad). KAPA SYBR FAST qPCR Master Mix was used for RT-PCR analysis. Primers used are listed in supplemental Table I. The change in mRNA expression was calculated by the comparative change in cycle method (ΔΔCT). All data were normalized to GAPDH or 28S and were expressed as fold change over the control.
RAW264.7 cells were obtained from American Type Culture Collection. Peritoneal macrophages (pMø) were collected from mice by peritoneal lavage 4 d after intraperitoneal injection of 3% (wt/vol) thioglycollate as previously described (Kunjathoor, et al., J Biol Chem., 2002, 277:49982-49988). Bone marrow derived macrophages (BMDMs) were prepared from mice as previously described (Kunjathoor, et al., J Biol Chem., 2002, 277:49982-49988). For gene expression experiments, macrophages were plated at 1×10^6 cells/well in 6 well plates. CoCl2 (0.1M solution) was obtained from Sigma and used at the concentrations indicated to mimic hypoxia. Oxidation or acetylation of LDL (50 μg/mL; Biomedical Technologies) was performed as described (Kunjathoor, et al., J Biol Chem., 2002, 277:49982-49988). Recombinant IL-4 and IFN-γ were purchased from PeproTech. Ultrapure LPS from E. coli K12 was purchased from InvivoGen.

[2] = tested on: BMDM; assay: BMDM migration towards MCP-1 (xCelligence); format: cell-based, mouse; details: CoCl2-treated vs control macrophages
Protocol: Macrophage chemotaxis was measured using the Real-Time Cell Invasion and Migration xCelligence Assay System with monitoring every 3 min (Roche Applied Science). BMDM migration towards MCP-1 (100 ng/ml; R&D Systems) was measured in the presence or absence of oxLDL (50 μg/ml) and/or recombinant rat UNC5b-Fc chimera (1006-UN; R&D Systems) to block the effects of netrin-1. In a subset of experiments, cells were pre-treated with 0.1 mmol/L CoCl2 for 1 h prior to migration. J774 macrophage migration was carried out in the presence or absence of UNC5b-Fc chimera. Results of chemotaxis assays are representative of at least three independent experiments performed on triplicate samples.

[3] = tested on: human Unc5H2 promoter-luciferase reporter; assay: Unc5H2 promoter-luciferase assay (Example 4); format: cell-based; details: HEK293 cells
Protocol: (§1) Promoter-Luciferase assays. HEK293T cells were transfected with human NTNI or Unc5H2 promoter-luciferase reporter constructs (SwitchGear Genomics) using Lipofectamine™ 2000 (11668-019, Invitrogen) After transfection, media was changed and cells were treated with palmitate or BSA for 24 hours, in the presence or absence of the NFkB inhibitor BAY 11-7082 (10 μmol/L). Luciferase activity was measured using the DUAL-Glo Luciferase Assay system (E1910, Promega).

[4] = tested on: 3T3L1 adipocytes; assay: qRT-PCR of 3T3L1 adipocytes; format: cell-based; details: palmitate treatment
Protocol: (§2) Real-time Quantitative RT-PCR Analysis RNA (0.5-1 μg) was reverse transcribed using iScript™ cDNA Synthesis Kit (Biorad) and RT-PCR analysis was conducted using kapa SYBR green Supermix (kappa syber) and a Mastercycler Realplex (Eppendorf) the primers used are listed. Fold change in mRNA expression was calculated using the comparative cycle method (ΔΔCt).
(§3) Cell culture. Primary bone marrow derived macrophage (BMDM) was prepared by flushing the bone marrow of the tibia and femur of 6-8 week old C57/B6 mice. The cells were grown in DMEM supplemented with 15% L929-conditioned media, 10% FBS and 1% penicillin/streptomycin for 7 days. BMDM were stimulated 250 pM palmitate conjugated with BSA or BSA as a control for 24 hours, or TNFα (10 ng/ml, 410-MT-010; R&D systems), IL-6 (40 nglml, 406-ML-005; R&D systems) and IL-4 (1 Onglml, 404-ML-010; R&D systems) for 24 h. In some assays, differentiated BMDM were treated with conditioned media from 3T3-L1 adipocytes differentiated as described (Lin, et al., J Biol Chem, 2005; 280:4617-4626) and treated with 250 pM palmitate conjugated with BSA or BSA for 24 hours. In certain experiments, anti-TNFα (0.4 μg/ml, AF-410-NA, R&D systems) or anti-IL-6 (0.025 μg/ml, MAB406; R&D systems) blocking antibody or IgG control (Normal Goat IgG: AB-108-C, Rat IgG1: MAB005; R&D systems) was added to conditioned media. […]

[5] = tested on: peritoneal macrophages; assay: Migration of palmitate-treated peritoneal macrophages to CCL19; format: cell-based, mouse; details: treatment with palmitate
Protocol: as §3, with “media. Peritoneal macrophages were isolated as described (van Gils, et al., Nat Immunol, 2012; 13:136-143).” for “media.”
Migration. The migration of ATM or peritoneal macrophages to CCL19 (500 ng/ml; R&D Systems) was assessed by the xCelligence Real-time Cell Invasion and Migration system (ACEA biosciences Inc) that monitored chemotaxis every 5 minutes for over 6 h. […]

[6] = tested on: BMDM; assay: qRT-PCR of BMDM (palmitate, cytokines, adipocyte conditioned media); format: cell-based, mouse; details: BMDMs, palmitate conjugated to BSA
Protocol: as §2
Cell culture. Primary bone marrow derived macrophage (BMDM) was prepared by flushing the bone marrow of the tibia and femur of 6-8 week old C57/B6 mice. The cells were grown in DMEM supplemented with 15% L929-conditioned media, 10% FBS and 1% penicillin/streptomycin for 7 days. BMDM were stimulated 250 pM palmitate conjugated with BSA or BSA as a control for 24 hours, or TNFα (10 ng/ml, 410-MT-010; R&D systems), IL-6 (40 nglml, 406-ML-005; R&D systems) and IL-4 (1 Onglml, 404-ML-010; R&D systems) for 24 h. In some assays, differentiated BMDM were treated with conditioned media from 3T3-L1 adipocytes differentiated as described (Lin, et al., J Biol Chem, 2005; 280:4617-4626) and treated with 250 pM palmitate conjugated with BSA or BSA for 24 hours. In certain experiments, anti-TNFα (0.4 μg/ml, AF-410-NA, R&D systems) or anti-IL-6 (0.025 μg/ml, MAB406; R&D systems) blocking antibody or IgG control (Normal Goat IgG: AB-108-C, Rat IgG1: MAB005; R&D systems) was added to conditioned media. Peritoneal macrophages were isolated as described (van Gils, et al., Nat Immunol, 2012; 13:136-143). Mice were injected intraperitoneally with 1 ml of 3% (wt/vol) thioglycolate to elicit sterile sterile peritonitis with macrophage numbers peaking on day 4. Cells were collected by lavage and used for migration assays.
Palmitate-BSA preparation. Sodium palmitate (P9767; Sigma Aldrich) was dissolved in sterile water in to make a 100-mM solution by alternating heating and vortexing until the palmitate was dissolved. Thu occurred once the solution reached 70 C. […]

[7] = tested on: BMDM; assay: netrin-1 ELISA of BMDM supernatants; format: cell-based, mouse
Protocol: as §3
ELISA assay. Insulin (90080; crystal Chem Inc), adiponectin (ab108785; Abeam), FFA (SFA-1; Zen Bio), TNFa (88-7064-76; ebiosciences) and netrin-1 (E91827Mu; USCN life science Inc) levels were measured in the serum using mouse standards according to manufacturer's guidelines. Netrin-1 in human serum was measured using a human-specific netrin-1 ELISA from USCN Life Science Inc (700176; mybiosource).

[8] = tested on: human NTNI promoter-luciferase reporter; assay: NTN1 promoter-luciferase assay (Example 4); format: cell-based; details: HEK293 cells
Protocol: as §1

[Cl][Co][Cl] [CoCl2, Cobalt chloride]
macrophage Sema3e mRNA increase [1]: 5 fold
ability of BMDM to migrate to MCP-1 [2]: strongly impaired

CCCCCCCCCCCCCCCC(=O)[O-].[Na+] [palmitate, Sodium palmitate]
activity of Unc5b-promoter luciferase reporter [3]: induced the activity
Tnfa and Il6 mRNA in adipocytes [4]: induced expression
migration of peritoneal macrophages to CCL19 [5]: blocked the migration
increase in Ntn1 mRNA [6]: 5 fold
increase in Unc5b mRNA [6]: 3 fold
secretion of netrin-1 by BMDM (ELISA) [7]: induced secretion
activity of Ntn1-promoter luciferase reporter [8]: induced the activity

Reference: patent US20210113687A1, “METHODS FOR TREATING INFLAMMATION” (NEW YORK UNIVERSITY, priority 2013, published 2021)
